Reference: patent US20180186877A1 (NATIONAL CEREBRAL AND CARDIOVASCULAR CENTER, priority 2013, published 2018)

How the values were obtained:
[1] = system: human blood plasma; test: Recalcification blood coagulation test with procyanidin; assay type: biochemical
Procedure: An anti-blood coagulation effect yielded by procyanidin was confirmed by the recalcification blood coagulation test. […] Thereafter, as in Example 8, human blood plasma and Ca2+ were added to the test tube, and the coagulation time was measured. Then, the coagulation time of the test tube to which no procyanidin was added, was also measured in a similar manner. Furthermore, the coagulation time of the test tube to which no recombinant LOX-1 protein was added, was also measured in a similar manner.

[2] = molecular target: binding of LOX-1 to oxidized LDL (Homo sapiens, UniProt P78380); conditions: Nishizuka et al. 2011; cited from earlier work

Substance: procyanidin
- coagulation time ([1]; 1 μg/mL procyanidin added to blood plasma alone, no LOX-1): no influence
- coagulation time ([1]; 1 μg/mL procyanidin with 1 μg/mL LOX-1 and blood plasma, significance less than 5%): reduction of the coagulation time was suppressed
- inhibition of binding of LOX-1 to oxidized LDL [2]: inhibits
